From patent publication US10160729B2, “Hsp70 modulators and methods for making and using the same” (Memorial Sloan Kettering Cancer Center, priority 2014, dated 2018)
pEC50: −log10 of the molar value.

The molecules below were run on MOLM-13 cells (assay: Caspase cleavage assay (Caspase3, 7 activation)). Settings: Homo sapiens, 16 h treatment, caspase substrate Z-DEVD-R110, read-out: c* Concentration at which 50% of the maximum signal was achieved (caspase activation).
Assay type: cell-based
Method: Caspase3, 7 Activation. MOLM-13 cells (30,000 cells/well) were plated in black 96-well plates (Corning Cat. #3603) in 40 μL of RPMI media, and left in an incubator (37° C., 5% CO2) for up to 24 h. Cells were treated for 16 h with compounds or DMSO (control) at desired concentrations in 50 μL of media. Drugs were added in triplicate wells. Following exposure of cells to Hsp70 inhibitors, 50 μL of buffer containing 10 mM HEPES (pH 7.5), 2 mM EDTA, 0.1% CHAPS and the caspase substrate Z-DEVD-R110 at 25 μM was added to each well. Plates were incubated until the signal stabilized and then the fluorescence signal of each well was measured in an Analyst GT microplate reader. The percentage increase in apoptotic cells was calculated by comparison of the fluorescence reading obtained from treated versus control cells.
`COc1cc(COc2nc(N3CC[C@@H](N(C)C)C3)ncc2Sc2ccc(C(N)=O)cc2)ccc1F` [compound 208, (R)-4-((2-(3-(Dimethylamino)pyrrolidin-1-yl)-4-((4-fluoro-3-methoxybenzyl)oxy)pyrimidin-5-yl)thio)benzamide] was tested, and the pEC50 was > 6.70.
Molecule `CN1CCN(c2ncc(Sc3ccc(C(N)=O)cc3)c(OCc3ccc(F)cc3)n2)CC1` [100m, 4-((4-((4-Fluorobenzyl)oxy)-2-(4-methylpiperazin-1-yl)pyrimidin-5-yl)thio)benzamide] has a pEC50 of 6.40 to 6.70.
With `C[C@@H]1CN(C)[C@@H](C)CN1c1ncc(Sc2ccc(C(N)=O)cc2)c(OCc2ccccc2)n1` [compound 182, 4-((4-(Benzyloxy)-2-((2R,5S)-2,4,5-trimethylpiperazin-1-yl)pyrimidin-5-yl)thio)benzamide] the pEC50 was ≤ 5.92.
For `CN1CCN(c2ncc(Sc3ccc(C(N)=O)cc3)c(OCCc3ccccc3)n2)CC1` [100h, 4-((2-(4-Methylpiperazin-1-yl)-4-phenethoxypyrimidin-5-yl)thio)benzamide], the pEC50 was 6.40 to 6.70.
With `CN(C)c1cccc(COc2nc(N3CCN(C4CC4)CC3)ncc2Sc2ccc(C(N)=O)c(C(F)(F)F)c2)c1` [compound 341, 4-((2-(4-Cyclopropylpiperazin-1-yl)-4-((3-(dimethylamino)benzyl)oxy)pyrimidin-5-yl)thio)-2-(trifluoromethyl)benzamide] the pEC50 was ≤ 5.92.
With `CN1CCN(c2ncc(Sc3ccc(O)cc3)c(OCc3ccccc3)n2)CC1` [compound 37, 4-((4-(Benzyloxy)-2-(4-methylpiperazin-1-yl)pyrimidin-5-yl)thio)phenol] the pEC50 was 6.00 to 6.40.
`COc1cc(F)cc(COc2nc(N3CCN(C)CC3)ncc2Sc2ccc(C(N)=O)c(Cl)c2)c1` [compound 110, 2-Chloro-4-((4-((3-fluoro-5-methoxybenzyl)oxy)-2-(4-methylpiperazin-1-yl)pyrimidin-5-yl)thio)benzamide] was tested, and the pEC50 was 6.40 to 6.70.
With `C[C@H](Oc1nc(N2CCN(C)CC2)ncc1Sc1ccc(C(N)=O)cc1)c1ccc(F)cc1` [100n, (S)-4-((4-(1-(4-Fluorophenyl)ethoxy)-2-(4-methylpiperazin-1-yl)pyrimidin-5-yl)thio)benzamide] the pEC50 was ≤ 5.92.
Work on `CNC(=O)c1ccc(Sc2cnc(N3CCN(C)CC3)nc2OCc2ccccc2)cc1` [compound 83, 4-((4-(Benzyloxy)-2-(4-methylpiperazin-1-yl)pyrimidin-5-yl)thio)-N-methylbenzamide] yielded a pEC50 of 6.00 to 6.40.
`C=CCN1CCN(c2ncc(Sc3ccc(C(N)=O)cc3)c(OCc3cccc(OC)c3)n2)CC1` [190o, 4-((2-(4-Allylpiperazin-1-yl)-4-((3-methoxybenzyl)oxy)pyrimidin-5-yl)thio)benzamide] was tested, and the pEC50 was > 6.70.
For `COc1cccc(COc2nc(N3CC[C@@H](N(C)C)C3)ncc2Sc2ccc(C(N)=O)cc2)c1` [190e, (R)-4-((2-(3-(dimethylamino)pyrrolidin-1-yl)-4-((3-methoxybenzyl)oxy)pyrimidin-5-yl)thio)benzamide], the pEC50 was > 6.70.
`C#CCN1CCN(c2ncc(Sc3ccc(C(N)=O)cc3)c(OCc3ccc(F)c(Cl)c3)n2)CC1` [compound 354, 4-((4-((3-Chloro-4-fluorobenzyl)oxy)-2-(4-(prop-2-yn-1-yl)piperazin-1-yl)pyrimidin-5-yl)thio)benzamide] was tested, and the pEC50 was > 6.70.
`CN1CCN(c2ncc(Sc3ccc(C(N)=O)c(Cl)c3)c(OCc3ccc(F)c(N)c3)n2)CC1` [compound 118, 4-((4-((3-Amino-4-fluorobenzyl)oxy)-2-(4-methylpiperazin-1-yl)pyrimidin-5-yl)thio)-2-chlorobenzamide] showed a pEC50 of 6.00 to 6.40.
In the case of `CN(C)[C@@H]1CCN(c2ncc(Sc3ccc(N)nc3)c(OCc3cccc(Cl)c3)n2)C1` [compound 376, (R)-5-((4-((3-Chlorobenzyl)oxy)-2-(3-(dimethylamino)pyrrolidin-1-yl)pyrimidin-5-yl)thio)pyridin-2-amine], the pEC50 was > 6.70.
Work on `CN1CCN(c2ncc(Sc3ccc(C(=O)N(C)C)cc3)c(OCc3ccccc3)n2)CC1` [compound 84, 4-((4-(Benzyloxy)-2-(4-methylpiperazin-1-yl)pyrimidin-5-yl)thio)-N,N-dimethylbenzamide] yielded a pEC50 of 6.40 to 6.70.
In the case of `Cc1cccc(COc2nc(N3CCN(C)CC3)ncc2Sc2ccc(C(N)=O)c(C(F)(F)F)c2)c1` [compound 329, 4-((4-((3-Methylbenzyl)oxy)-2-(4-methylpiperazin-1-yl)pyrimidin-5-yl)thio)-2-(trifluoromethyl)benzamide], the pEC50 was 6.00 to 6.40.
`CN1CCN(c2ncc(Sc3ccc(C(N)=O)c(Cl)c3)c(OCc3cccc(OC(F)F)c3)n2)CC1` [compound 121, 2-Chloro-4-((4-((3-(difluoromethoxy)benzyl)oxy)-2-(4-methylpiperazin-1-yl)pyrimidin-5-yl)thio)benzamide] gave a pEC50 of 6.40 to 6.70.
`NC(=O)c1ccc(Sc2cnc(N3CCN(C4CC4)CC3)nc2OCc2cccc(Cl)c2)cc1C(F)(F)F` [compound 227, 4-((4-((3-Chlorobenzyl)oxy)-2-(4-cyclopropylpiperazin-1-yl)pyrimidin-5-yl)thio)-2-(trifluoromethyl)benzamide] was tested, and the pEC50 was ≤ 5.92.
In the case of `NC(=O)c1ccc(Sc2cnc(N3CCN(CC#CCO)CC3)nc2OCc2cccc(Cl)c2)cc1` [compound 379, 4-((4-((3-Chlorobenzyl)oxy)-2-(4-(4-hydroxybut-2-yn-1-yl)piperazin-1-yl)pyrimidin-5-yl)thio)benzamide], the pEC50 was > 6.70.
For `CN1CCN(c2ncc(Sc3ccc(C(N)=O)cc3)c(OCc3ccnc(N)c3)n2)CC1` [100r, 4-((4-((2-Aminopyridin-4-yl)methoxy)-2-(4-methylpiperazin-1-yl)pyrimidin-5-yl)thio)benzamide], the pEC50 was 5.92 to 6.00.
`CC(=O)c1ccc(Sc2cnc(N3CCN(C)CC3)nc2OCc2ccccc2)s1` [compound 30, 1-(5-((4-(Benzyloxy)-2-(4-methylpiperazin-1-yl)pyrimidin-5-yl)thio)thiophen-2-yl)ethanone] showed a pEC50 of 6.00 to 6.40.
In the case of `NC(=O)c1ccc(Sc2cnc(N3CCOCC3)nc2OCc2ccccc2)cc1` [179a], the pEC50 was ≤ 5.92.
In the case of `CN1CCN(c2ncc(Sc3cccc(C(N)=O)c3)c(OCc3ccccc3)n2)CC1` [compound 67, 3-((4-(Benzyloxy)-2-(4-methylpiperazin-1-yl)pyrimidin-5-yl)thio)benzamide], the pEC50 was 6.40 to 6.70.
`CN1CCN(c2ncc(Sc3ccc(N)nc3)c(OCc3ccc(F)c(Br)c3)n2)CC1` [compound 155, 5-((4-((3-Bromo-4-fluorobenzyl)oxy)-2-(4-methylpiperazin-1-yl)pyrimidin-5-yl)thio)pyridin-2-amine] was tested, and the pEC50 was > 6.70.
With `CN1CCN(c2ncc(Sc3ccc(C(N)=O)c(Br)c3)c(OCc3ccccc3)n2)CC1` [compound 77, 4-((4-(Benzyloxy)-2-(4-methylpiperazin-1-yl)pyrimidin-5-yl)thio)-2-bromobenzamide] the pEC50 was 6.40 to 6.70.
`CN1CCN(c2ncc(Sc3ccc(C(N)=O)cc3)c(OCc3cccc(N)c3)n2)CC1` [100x, 4-((4-((3-Aminobenzyl)oxy)-2-(4-methylpiperazin-1-yl)pyrimidin-5-yl)thio)benzamide] was tested, and the pEC50 was > 6.70.
`CN1CCN(c2ncc(Sc3ccc(C#N)cc3)c(OCc3ccccc3)n2)CC1` [compound 44, 4-((4-(Benzyloxy)-2-(4-methylpiperazin-1-yl)pyrimidin-5-yl)thio)benzonitrile] was tested, and the pEC50 was 6.00 to 6.40.
In the case of `COc1cccc(COc2nc(N3CCN(C)CC3)ncc2Sc2ccc(C(N)=O)cc2)c1` [100g, 4-((4-((3-Methoxybenzyl)oxy)-2-(4-methylpiperazin-1-yl)pyrimidin-5-yl)thio)benzamide], the pEC50 was > 6.70.
Work on `CN1CCN(c2ncc(Sc3ccc(F)c(C(N)=O)c3)c(OCc3ccccc3)n2)CC1` [compound 68, 5-((4-(Benzyloxy)-2-(4-methylpiperazin-1-yl)pyrimidin-5-yl)thio)-2-fluorobenzamide] yielded a pEC50 of 5.92 to 6.00.
For `COc1cc(COc2nc(N3CC[C@@H](N(C)C)C3)ncc2Sc2ccc(C(N)=O)c(Cl)c2)ccc1F` [compound 212, (R)-2-Chloro-4-((2-(3-(dimethylamino)pyrrolidin-1-yl)-4-((4-fluoro-3-methoxybenzyl)oxy)pyrimidin-5-yl)thio)benzamide], the pEC50 was > 6.70.
In the case of `CN(C)[C@@H]1CCN(c2ncc(Sc3ccc(C(N)=O)cc3)c(OCc3cccc(I)c3)n2)C1` [compound 369, (R)-4-((2-(3-(Dimethylamino)pyrrolidin-1-yl)-4-((3-iodobenzyl)oxy)pyrimidin-5-yl)thio)benzamide], the pEC50 was 6.40 to 6.70.
`CN1CCN(c2ncc(Sc3ccc(C(N)=O)c(F)c3)c(OCc3ccccc3)n2)CC1` [compound 79, 4-((4-(Benzyloxy)-2-(4-methylpiperazin-1-yl)pyrimidin-5-yl)thio)-2-fluorobenzamide] showed a pEC50 of 6.40 to 6.70.
In the case of `COc1cccc(COc2nc(N3CCN(C4(C)CC4)CC3)ncc2Sc2ccc(C(N)=O)cc2)c1` [compound 311, 4-((4-((3-Methoxybenzyl)oxy)-2-(4-(1-methylcyclopropyl)piperazin-1-yl)pyrimidin-5-yl)thio)benzamide], the pEC50 was ≤ 5.92.
For `CN1CCN(c2ncc(Sc3ccc(C(N)=O)c(C(F)(F)F)c3)c(OCc3ccccc3)n2)CC1` [compound 70, 4-((4-(Benzyloxy)-2-(4-methylpiperazin-1-yl)pyrimidin-5-yl)thio)-2-(trifluoromethyl)benzamide], the pEC50 was > 6.70.
`CC(C)N1CCN(c2ncc(Sc3ccc(C(N)=O)cc3)c(OCc3cccc(N(C)C)c3)n2)CC1` [185b, 4-((4-((3-(Dimethylamino)benzyl)oxy)-2-(4-isopropylpiperazin-1-yl)pyrimidin-5-yl)thio)benzamide] was tested, and the pEC50 was 5.92 to 6.00.
For `CN1CCN(c2ncc(Sc3ccc(C(N)=O)cc3)c(OCc3ccc(I)cc3)n2)CC1` [100v, 4-((4-((4-Iodobenzyl)oxy)-2-(4-methylpiperazin-1-yl)pyrimidin-5-yl)thio)benzamide], the pEC50 was ≤ 5.92.
